Structures can show the parent of a compound that is named as a salt.

This assay deals with CGAS. Kind of assay: CGAS whole blood cytokine release assay (384-well, BacMam stimulation, IP-10 by cytometric bead array). In kind it is cell-based. Particulars: Homo sapiens, 6 h; read-out: hWB pXC50 (converted). Here is the method: Blood collection: Blood was collected in a tube containing 10% Sodium Heparin (5 ml/45 ml blood final).
Protocol for CGAS Whole Blood Cytokine Release Assay: Compounds serial diluted at 1:3 were provided at 150 nL per well, in a 384 well polypropylene microplate (cat. 781280; Greiner Bio-One, Frickenhausen, Germany). 5 μL of PBS/20% Null BacMam was dispensed to all wells except for column 18 on a Multidrop Combi (Thermo Scientific, Waltham, MA). 5 uL of PBS was dispensed into column 18. The Bravo (Agilent, Santa Clara, CA) was used to transfer 45 uL of donor derived blood into the compound plates. The Bravo protocol mixed the blood and compound/PBS 5 times. The plates were incubated at 37° C., 5% CO2, for 6 hours. At the 6 hour mark the plates were removed and centrifuged for 10 minutes at 3000 RPM. 3 uL of supernatant was transferred from the plate to a 384 well NBS microplate (cat. 4513; Corning Life Sciences, Corning, NY). These plates were sealed with adhesive foil and stored in a −80 freezer until ready for analysis.
For cytokine detection, Human IP-10 BD cytometric bead array (CBA) beads (BD Biosciences, Franklin Lakes, NJ) were used. Capture bead solution was prepared by performing a 1:50 dilution of the IP-10 capture bead stock solution in BD diluent for serum/plasma (cat. 51-9003991 BD Biosciences, Franklin Lakes, NJ). 2 μL of this solution was added per well to the assay microplates which were then sealed with adhesive foil and incubated at room temperature for 2 h in the dark. Detection reagent was further prepared by performing a 1:50 dilution of the detection reagent stock solution. 2 μL of detection reagent was added per well and microplates were sealed with adhesive foil and incubated at room temperature in the dark for 1 h. After the 1 h incubation 3 uL of BD CBA wash buffer was added per well of the microplates. Data were acquired on an iQue Screener flow cytometer. The iQue used fluorescence detection to quantify the inhibition of IP-10 present in the sample wells. A sip time of 1 second per sample was used. The blue laser with excitation of 488 nm and emission filters 585/40 nm were used to capture the mean and median of IP-10 with the detector in logarithmic mode (FL2-H).
All data analysis was carried out in IDBS ActivityBase XE.

Regarding `O=C(O)CCOC(=O)OCn1cnc(-c2c(-c3nc(C(F)(F)F)n[nH]3)nc3ncccn23)c1` [Example 32, 3-({[(4-{2-[3-(trifluoromethyl)-1H-1,2,4-triazol-5-yl]imidazo[1,2-a]pyrimidin-3-yl}-1H-imidazol-1-yl)methoxy]carbonyl}oxy)propanoic acid, 0.5 trifluoroacetic acid salt], the IC50 was 3160 nM.

Turning to `CC1(C)Cc2nc3nc(-c4nc(C(F)(F)F)n[nH]4)c(-c4c[nH]cn4)n3cc2CO1` [Example 137, 6-(1H-imidazol-4-yl)-12,12-dimethyl-5-[3-(trifluoromethyl)-1H-1,2,4-triazol-5-yl]-11-oxa-2,4,7-triazatricyclo[7.4.0.0^3,^7]trideca-1,3,5,8-tetraene], the IC50 is 631 nM.

On to `FC(F)(F)c1n[nH]c(-c2nc3ncc(COCCn4cc(Cl)cn4)cn3c2-c2c[nH]cn2)n1` [Example 151, 5-(6-{[2-(4-chloro-1H-pyrazol-1-yl)ethoxy]methyl}-3-(1H-imidazol-4-yl)imidazo[1,2-a]pyrimidin-2-yl)-3-(trifluoromethyl)-1H-1,2,4-triazole], for which the IC50 was 3980 nM.

`FC(F)(F)c1n[nH]c(-c2nc3ncc(C4(C(F)(F)F)CC4)cn3c2-c2cnc[nH]2)n1` [Example 144, 5-[3-(1H-imidazol-5-yl)-6-[1-(trifluoromethyl)cyclopropyl]imidazo[1,2-a]pyrimidin-2-yl]-3-(trifluoromethyl)-1H-1,2,4-triazole]: the IC50 was 794 nM.

In the case of `CCN1Cc2cn3c(-c4cnc[nH]4)c(-c4nc(C(F)(F)F)n[nH]4)nc3nc2C(F)(F)C1` [Example 108, 11-ethyl-13,13-difluoro-6-(1H-imidazol-5-yl)-5-[3-(trifluoromethyl)-1H-1,2,4-triazol-5-yl]-2,4,7,11-tetraazatricyclo[7.4.0.0^3,^7]trideca-1,3,5,8-tetraene], the IC50 is 631 nM.

For `OCC1CN(Cc2ccn3c(-c4c[nH]cn4)c(-c4nc(C(F)(F)F)n[nH]4)nc3n2)C1` [Example 164, (1-{[3-(1H-imidazol-4-yl)-2-[3-(trifluoromethyl)-1H-1,2,4-triazol-5-yl]imidazo[1,2-a]pyrimidin-7-yl]methyl}azetidin-3-yl)methanol], the IC50 is 6310 nM.

For `FC(F)(F)c1ccn2c(-c3cnc[nH]3)c(-c3nc(Br)n[nH]3)nc2n1` [Example 91, 3-bromo-5-[3-(1H-imidazol-5-yl)-7-(trifluoromethyl)imidazo[1,2-a]pyrimidin-2-yl]-1H-1,2,4-triazole], the IC50 is 1000 nM.

Take `CCCOCCOCc1cnc2nc(-c3nc(C(F)(F)F)n[nH]3)c(-c3c[nH]cn3)n2c1` [Example 153, 5-[3-(1H-imidazol-4-yl)-6-[(2-propoxyethoxy)methyl]imidazo[1,2-a]pyrimidin-2-yl]-3-(trifluoromethyl)-1H-1,2,4-triazole]: the IC50 was 794 nM.

With `O=C(COCc1cnc2nc(-c3nc(C(F)(F)F)n[nH]3)c(-c3c[nH]cn3)n2c1)N1CCCCC1` [Example 152, 2-{[3-(1H-imidazol-4-yl)-2-[3-(trifluoromethyl)-1H-1,2,4-triazol-5-yl]imidazo[1,2-a]pyrimidin-6-yl]methoxy}-1-(piperidin-1-yl)ethan-1-one], the IC50 was 2510 nM.

With `FC(F)Oc1n[nH]c(-c2nc3ncccn3c2-c2cnc[nH]2)n1` [Example 113, 3-(difluoromethoxy)-5-[3-(1H-imidazol-5-yl)imidazo[1,2-a]pyrimidin-2-yl]-1H-1,2,4-triazole], the IC50 was 1000 nM.

`FC(F)(F)COc1ccn2c(-c3cnc[nH]3)c(-c3nc(C(F)(F)F)n[nH]3)nc2n1` [Example 12, 5-[3-(1H-imidazol-5-yl)-7-(2,2,2-trifluoroethoxy)imidazo[1,2-a]pyrimidin-2-yl]-3-(trifluoromethyl)-1H-1,2,4-triazole]: the IC50 was 6310 nM.

Consider `FC(F)(F)c1cnc2nc(-c3nc(C(F)(F)F)n[nH]3)c(-c3cnc[nH]3)n2c1` [Example 64, 5-[3-(1H-imidazol-5-yl)-6-(trifluoromethyl)imidazo[1,2-a]pyrimidin-2-yl]-3-(trifluoromethyl)-1H-1,2,4-triazole], for which the IC50 is 398 nM.

On to `FC(F)(F)c1n[nH]c(-c2nc3ncc(COC4CCOCC4)cn3c2-c2c[nH]cn2)n1` [Example 65, 5-[3-(1H-imidazol-4-yl)-6-[(oxan-4-yloxy)methyl]imidazo[1,2-a]pyrimidin-2-yl]-3-(trifluoromethyl)-1H-1,2,4-triazole], for which the IC50 is 501 nM.

Turning to `FC(F)(F)c1n[nH]c(-c2nc3ncc(CC4CCCC4)cn3c2-c2cnc[nH]2)n1` [Example 17, 5-[6-(cyclopentylmethyl)-3-(1H-imidazol-5-yl)imidazo[1,2-a]pyrimidin-2-yl]-3-(trifluoromethyl)-1H-1,2,4-triazole, trifluoroacetic acid salt], the IC50 was 1260 nM.

Turning to `FC(F)(F)c1ccn2c(-c3cn[nH]c3)c(-c3nc(C(F)(F)F)n[nH]3)nc2n1` [Example 93, 5-[3-(1H-pyrazol-4-yl)-7-(trifluoromethyl)imidazo[1,2-a]pyrimidin-2-yl]-3-(trifluoromethyl)-1H-1,2,4-triazole], the IC50 was 2510 nM.

Regarding `COC(=O)c1ccn2c(-c3c[nH]cn3)c(-c3nc(C(F)(F)F)n[nH]3)nc2n1` [Example 100, methyl 3-(1H-imidazol-4-yl)-2-[3-(trifluoromethyl)-1H-1,2,4-triazol-5-yl]imidazo[1,2-a]pyrimidine-7-carboxylate], the IC50 is 398 nM.

On to `O=C(COCc1cnc2nc(-c3nc(C(F)(F)F)n[nH]3)c(-c3c[nH]cn3)n2c1)N1CCCC1` [Example 147, 2-{[3-(1H-imidazol-4-yl)-2-[3-(trifluoromethyl)-1H-1,2,4-triazol-5-yl]imidazo[1,2-a]pyrimidin-6-yl]methoxy}-1-(pyrrolidin-1-yl)ethan-1-one], for which the IC50 was 5010 nM.

Take `CC(=O)n1cnc(-c2c(-c3nc(C(F)(F)F)n[nH]3)nc3ncccn23)c1` [Example 62, 1-(4-{2-[3-(trifluoromethyl)-1H-1,2,4-triazol-5-yl]imidazo[1,2-a]pyrimidin-3-yl}-1H-imidazol-1-yl)ethan-1-one]: the IC50 was 126 nM.

Regarding `CNCCOC(=O)OCn1cnc(-c2c(-c3nc(C(F)(F)F)n[nH]3)nc3ncccn23)c1` [Example 26, 2-(methylamino)ethyl (4-{2-[3-(trifluoromethyl)-1H-1,2,4-triazol-5-yl]imidazo[1,2-a]pyrimidin-3-yl}-1H-imidazol-1-yl)methyl carbonate, 2 trifluoroacetic acid salt], the IC50 was 39.8 nM.

With `CS(=O)(=O)N1Cc2cn3c(-c4cnc[nH]4)c(-c4nc(C(F)(F)F)n[nH]4)nc3nc2C1` [Example 67, 12-(1H-imidazol-5-yl)-5-methanesulfonyl-11-[3-(trifluoromethyl)-1H-1,2,4-triazol-5-yl]-1,5,8,10-tetraazatricyclo[7.3.0.0^3,^7]dodeca-2,7,9,11-tetraene], the IC50 is 2510 nM.

Regarding `CCOCc1cnc2nc(-c3nc(C(F)F)n[nH]3)c(-c3cnc[nH]3)n2c1` [Example 85, 3-(difluoromethyl)-5-[6-(ethoxymethyl)-3-(1H-imidazol-5-yl)imidazo[1,2-a]pyrimidin-2-yl]-1H-1,2,4-triazole], the IC50 was 50.1 nM.
